{"source": "patent US20230330020A1", "about": "“MEDICATION THAT PROTECTS THE INTESTINAL MICROBIOTA AND THEIR PREPARATION METHODS AND APPLICATIONS” (priority 2020, published 2023)", "key": {"Streptococcus pneumoniae": {"system": "Streptococcus pneumoniae", "assay": "Mouse pneumonia induced by intranasal Streptococcus pneumoniae, oral treatment", "type": "in vivo, mice", "protocol": "In one implementation, the effectiveness of orally administered ampicillin wrapped in PGNPs for treating mouse pneumonia was validated. Firstly, we induced mouse pneumonia by intranasally administering Streptococcus pneumoniae. At 2 and 8 hours post-induction, the mice received either ampicillin encapsulated in PGNPs or free ampicillin treatment. At 24 hours post-infection, the number of Streptococcus pneumoniae in the mouse lungs and the proportion of neutrophil infiltration were analyzed.\nMice were divided into four groups, with two control groups receiving no ampicillin treatment and two treatment groups receiving ampicillin treatment after infection, with at least 3 mice per group. Mouse pneumonia was induced by intranasal inoculation of 3×10^8 CFUs of Streptococcus pneumoniae. After infection, mice were orally treated with either free ampicillin or PGNPs encapsulated with ampicillin (40 mg kg^−1) at 2 hours and 8 hours post-infection. After 24 hours of infection, the number of Streptococcus pneumoniae in the lungs was measured. Mouse lung tissues were collected and homogenized in sterile PBS, diluted 10-fold in PBS, and plated for colony counting. The proportion of neutrophil infiltration in the lungs of the mice was determined by staining the lung tissues with antibodies and analyzing with a flow cytometer."}, "[1]": {"system": "ampicillin resistance gene ampC", "assay": "Real-time quantitative PCR of resistance gene ampC and total bacterial 16S rRNA in fecal DNA", "type": "in vivo, mice", "conditions": "oral 20 mg kg^-1 once a day 5 days; feces; vs control", "protocol": "We orally administered PGNPs-encapsulated ampicillin and free ampicillin to 6-8 weeks old mice for 5 consecutive days, once a day, while the control group was not given any ampicillin treatment. At specific time points during and after the antibiotic treatment period, we collected fecal samples from the mice, extracted DNA, determined DNA concentration, diluted to 10 ng μL^−1, and analyzed the copy number of the ampicillin resistance gene ampC using real-time fluorescence quantitative PCR.\nMice were divided into four groups, with 6 mice in each group. The control group was not treated with antibiotics, while the experimental group was given free antibiotics or antibiotics encapsulated in PGNPs prepared as described above. The experimental group mice were orally administered ampicillin (20 mg kg^−1) and PGNPs- encapsulated ampicillin once a day for 5 consecutive days. At specific time points, mouse feces were collected, and total DNA was extracted from fecal samples, and the concentration was measured. Real-time quantitative PCR was used to amplify the ampicillin resistance gene ampC and the total bacterial 16S rRNA in fecal DNA, and the copy numbers of the two genes were calculated to determine the effect of the two different antibiotic treatments on the abundance of antibiotic-resistant bacteria in the gut."}, "[2]": {"assay": "Loading rate (encapsulation efficiency) of antibiotics in PGNPs by double emulsion, single emulsion and dialysis", "type": "physicochemical", "conditions": "hydrophobic antibiotics; Gluc-PEG-PLGA + cationic lipid", "excerpt": "In one implementation, we used a double-emulsification method to encapsulate hydrophilic antibiotics such as ampicillin and erythromycin, and measured an encapsulation efficiency of 50%-60%. Using a dialysis method, we encapsulated hydrophobic antibiotics such as metronidazole and achieved an encapsulation efficiency of 25%. Encapsulation of hydrophobic antibiotics such as metronidazole using a single-emulsification method yielded an encapsulation efficiency of 20%-40%. Various types of antibiotics with different properties can be encapsulated in nanoparticles using methods such as single-emulsification, double-emulsification, and dialysis, as shown in FIG. 3. The double-emulsification method yielded the highest encapsulation efficiency for hydrophilic antibiotics.\nFor hydrophilic antibiotics, such as ampicillin and vancomycin, the double emulsion method was used for loading. A water-soluble solution (100 mg mL^−1, 30 μL) of either ampicillin or vancomycin was added to 0.5 mL of dichloromethane containing 0.5 mg DOTAP and 5 mg glucose-PEG-PLGA. […] The concentration of the loaded antibiotics in the nanoparticles was measured using a UV spectrophotometer or HPLC. The loading rate was calculated by dividing the mass of loaded antibiotics by the total mass of antibiotics used for loading. […]"}, "[3]": {"conditions": "40 mg kg^-1 oral at 2 h and 8 h post-infection, 24 h, vs untreated group"}}}
{"smiles": "CC1(C)S[C@@H]2[C@H](NC(=O)[C@H](N)c3ccccc3)C(=O)N2[C@H]1C(=O)O", "note": "[Free-Amp, ampicillin]", "values": [{"measurement": "neutrophil proportion in the lungs", "setting": "Streptococcus pneumoniae; [3]", "result": "significant decrease"}, {"measurement": "number of lung Streptococcus pneumoniae", "setting": "Streptococcus pneumoniae; [3]", "result": "significant decrease"}, {"measurement": "therapeutic effect on mouse pneumonia", "setting": "Streptococcus pneumoniae; oral at 2 and 8 hours post-induction, analysed at 24 hours", "result": "good therapeutic effects"}, {"measurement": "copy number of gut bacterial resistance gene ampC", "setting": "[1]", "result": "increased sharply over time"}]}
{"smiles": "Cc1ncc([N+](=O)[O-])n1CCO", "note": "[metronidazole]", "values": [{"measurement": "encapsulation efficiency, dialysis method", "setting": "[2]", "result": 25, "unit": "%"}]}
